In patent US20060069132A1, “Azolecarboxamide herbicides” (priority 2004, published 2006):

Experiments:
barnyardgrass [1] = test: Test A pre-/postemergence herbicide test; assay type: in vivo, Echinochloa crus-galli
Method in brief: (§1)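 Seeds sown in sandy loam received a preemergence directed soil spray of compound in non-phytotoxic solvent with surfactant; postemergence plants (2–10 cm, one- to two-leaf stage) were sprayed to runoff at the same time. After ~10 days in greenhouse, injury was rated visually versus untreated controls (0 = no effect, 100 = complete control).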

large crabgrass [2] = test: Test A pre-/postemergence herbicide test; assay type: in vivo, Digitaria sanguinalis
Method in brief: as §1

giant foxtail [3] = test: Test A pre-/postemergence herbicide test; assay type: in vivo, Setaria faberi
Method in brief: as §1

morningglory [4] = test: Test A pre-/postemergence herbicide test; assay type: in vivo, Ipomoea spp.
Method in brief: as §1

redroot pigweed = test: Test A pre-/postemergence herbicide test; assay type: in vivo, Amaranthus retroflexus
Method in brief: as §1

velvetleaf [5] = test: Test A pre-/postemergence herbicide test; assay type: in vivo, Abutilon theophrasti
Method in brief: as §1

barnyardgrass [6] = test: Test B pre-/postemergence herbicide test; assay type: in vivo, Echinochloa crus-galli
Method in brief: (§2)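 Seeds were planted and treated preemergence with compounds formulated in a non-phytotoxic solvent mixture containing surfactant, while plants at the 1- to 4-leaf stage (2 to 18 cm) received postemergence sprays. Flooded paddy plants were grown to the 2-leaf stage. After 13 to 15 days in a greenhouse, injury was visually rated 0–100 against untreated controls.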

Surinam grass = test: Test B pre-/postemergence herbicide test; assay type: in vivo, Urochloa decumbens
Method in brief: (§3)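 Formulation: non-phytotoxic solvent mix with surfactant. Timing: preemergence on seed and postemergence on 2–18 cm plants, applied concurrently. Readout after 13–15 d greenhouse: visual 0–100 control rating against controls.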

cocklebur = test: Test B pre-/postemergence herbicide test; assay type: in vivo, Xanthium strumarium
Method in brief: as §2

corn = test: Test B pre-/postemergence herbicide test; assay type: in vivo, Zea mays
Method in brief: as §3

large crabgrass [7] = test: Test B pre-/postemergence herbicide test; assay type: in vivo, Digitaria sanguinalis
Method in brief: as §3

giant foxtail [8] = test: Test B pre-/postemergence herbicide test; assay type: in vivo, Setaria faberi
Method in brief: as §3

lambsquarters = test: Test B pre-/postemergence herbicide test; assay type: in vivo, Chenopodium album
Method in brief: as §3

morningglory [9] = test: Test B pre-/postemergence herbicide test; assay type: in vivo, Ipomoea coccinea
Method in brief: as §2

pigweed = test: Test B pre-/postemergence herbicide test; assay type: in vivo, Amaranthus retroflexus
Method in brief: as §3

velvetleaf [10] = test: Test B pre-/postemergence herbicide test; assay type: in vivo, Abutilon theophrasti
Method in brief: as §3

blackgrass = test: Test B postemergence herbicide test; assay type: in vivo, Alopecurus myosuroides
Method in brief: (§4)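 Postemergence plants were sprayed with formulated test chemicals at 2 to 18 cm height (1- to 4-leaf stage); paddy species were grown to the 2-leaf stage. After 13 to 15 days in a greenhouse, injury was rated visually against untreated controls on a 0–100 scale (0 = no effect, 100 = complete control).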

wheat = test: Test B postemergence herbicide test; assay type: in vivo, Triticum aestivum; design: key to Wheat plant response rating: 0 = no effect, 100 = complete control
Method in brief: (§5)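 Greenhouse test; postemergence application to plants at 1–4 leaves (2–18 cm); paddy species at 2 leaves; evaluated visually vs controls at 13–15 days; scale 0–100 (100 = complete control).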

wild oat = test: Test B postemergence herbicide test; assay type: in vivo, Avena fatua
Method in brief: as §5

rice = test: Test B flooded paddy test; assay type: in vivo, Oryza sativa; conditions: scale 0 to 100 (0 no effect, 100 complete control)
Method in brief: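 Scale 0–100: zero equals no visible effect, 100 complete control, judged by eye relative to controls. Timing: 13 to 15 days in greenhouse post-treatment. Growth stage at spraying: two leaves (paddy) or one to four leaves, 2–18 cm (postemergence).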

[11] = tested on: small flower umbrella sedge; test: Test B flooded paddy test; assay type: in vivo, Cyperus difformis; conditions: scale 0 to 100 (0 no effect, 100 complete control)
Method in brief: as §4

ducksalad = test: Test B flooded paddy test; assay type: in vivo, Heteranthera limosa; conditions: scale 0 to 100 (0 no effect, 100 complete control)
Method in brief: as §4

barnyardgrass [12] = test: Test B flooded paddy test; assay type: in vivo, Echinochloa crus-galli; conditions: scale 0 to 100 (0 no effect, 100 complete control)
Method in brief: as §4

[13] = Postemergence, 250 g ai/ha, 0 to 100 scale, 0 no effect, 100 complete control
[14] = Postemergence, 1000 g ai/ha, 0 to 100 scale, 0 no effect, 100 complete control
[15] = Preemergence, 1000 g ai/ha, visual rating, 0 to 100 scale (0 no effect, 100 complete control)
[16] = preemergence, 250 g ai/ha, visual injury, 0 to 100 scale (0 no effect, 100 complete control)
[17] = Postemergence, 125 g ai/ha, scale 0 (no effect) to 100 (complete control)
[18] = Postemergence, 500 g ai/ha, visual rating after 13 to 15 days, scale 0 (no effect) to 100 (complete control)
[19] = Preemergence, 500 g ai/ha, scale 0 to 100
[20] = preemergence, 125 g ai/ha, 0 to 100 scale, 0 is no effect, 100 is complete control
[21] = 1000 g ai/ha, visual rating, 13 to 15 days
[22] = Postemergence, 500 g ai/ha, scale 0 (no effect) to 100 (complete control)
[23] = postemergence, 125 g ai/ha, scale 0 to 100
[24] = Postemergence, 125 g ai/ha, 0 to 100 scale, 0 no effect, 100 complete control
[25] = Postemergence, 500 g ai/ha, 0 to 100 scale, 0 no effect, 100 complete control
[26] = preemergence, 125 g ai/ha, visual injury, 0 to 100 scale (0 no effect, 100 complete control)
[27] = preemergence, 500 g ai/ha, visual injury, 0 to 100 scale (0 no effect, 100 complete control)

CCN(CC)C(=O)c1cccc(NC(=O)c2cc(C(C)(C)C)nn2CC(F)(F)F)c1 [Compound 32]
Barnyardgrass plant response rating (barnyardgrass [1]; [13]): 0
Plant response rating, Barnyardgrass (barnyardgrass [1]; [14]): 0
Barnyardgrass plant response rating (barnyardgrass [1]; [15]): 0
Barnyardgrass plant response rating (barnyardgrass [1]; [16]): 0
Crabgrass, Large plant response rating (large crabgrass [2]; [13]): 0
Plant response rating, Crabgrass, Large (large crabgrass [2]; [14]): 0
Crabgrass, Large plant response rating (large crabgrass [2]; [15]): 0
Crabgrass, Large plant response rating (large crabgrass [2]; [16]): 0
Foxtail, Giant plant response rating (giant foxtail [3]; [13]): 0
Plant response rating, Foxtail, Giant (giant foxtail [3]; [14]): 0
Foxtail, Giant plant response rating (giant foxtail [3]; [15]): 0
Foxtail, Giant plant response rating (giant foxtail [3]; [16]): 0
Morningglory plant response rating (morningglory [4]; [13]): 0
Plant response rating, Morningglory (morningglory [4]; [14]): 0
Morningglory plant response rating (morningglory [4]; [15]): 0
Morningglory plant response rating (morningglory [4]; [16]): 0
Pigweed plant response rating (redroot pigweed; [13]): 0
Plant response rating, Pigweed (redroot pigweed; [14]): 0
Pigweed plant response rating (redroot pigweed; [15]): 0
Pigweed plant response rating (redroot pigweed; [16]): 0
Velvetleaf plant response rating (velvetleaf [5]; [13]): 0
Plant response rating, Velvetleaf (velvetleaf [5]; [14]): 0
Velvetleaf plant response rating (velvetleaf [5]; [15]): 0
Velvetleaf plant response rating (velvetleaf [5]; [16]): 0
Barnyardgrass plant response rating (barnyardgrass [6]; [17]): 0
Plant response rating, Barnyardgrass (barnyardgrass [6]; [18]): 10
Barnyardgrass plant response rating (barnyardgrass [6]; [19]): 60
Plant response rating, Surinam Grass (Surinam grass; [18]): 10
Surinam Grass plant response rating (Surinam grass; [19]): 30
Plant response rating, Surinam Grass (Surinam grass; [20]): 0
Cocklebur plant response rating (cocklebur; [17]): 10
Plant response rating, Cocklebur (cocklebur; [18]): 20
Cocklebur plant response rating (cocklebur; [19]): 0
Corn plant response rating (corn; [17]): 10
Plant response rating, Corn (corn; [18]): 10
Corn plant response rating (corn; [19]): 0
Crabgrass, Large plant response rating (large crabgrass [7]; [17]): 0
Plant response rating, Crabgrass, Large (large crabgrass [7]; [18]): 10
Crabgrass, Large plant response rating (large crabgrass [7]; [19]): 60
Foxtail, Giant plant response rating (giant foxtail [8]; [17]): 0
Plant response rating, Foxtail, Giant (giant foxtail [8]; [18]): 10
Foxtail, Giant plant response rating (giant foxtail [8]; [19]): 10
Plant response rating, Foxtail, Giant (giant foxtail [8]; [20]): 0
Lambsquarters plant response rating (lambsquarters; [17]): 70
Plant response rating, Lambsquarters (lambsquarters; [18]): 90
Lambsquarters plant response rating (lambsquarters; [19]): 100
Plant response rating, Lambsquarters (lambsquarters; [20]): 100
Morningglory plant response rating (morningglory [9]; [17]): 0
Plant response rating, Morningglory (morningglory [9]; [18]): 0
Morningglory plant response rating (morningglory [9]; [19]): 60
Plant response rating, Morningglory (morningglory [9]; [20]): 50
Plant response rating, Pigweed (pigweed; [18]): 50
Pigweed plant response rating (pigweed; [19]): 70
Plant response rating, Pigweed (pigweed; [20]): 0
Plant response rating, Velvetleaf (velvetleaf [10]; [18]): 30
Velvetleaf plant response rating (velvetleaf [10]; [19]): 70
Plant response rating, Velvetleaf (velvetleaf [10]; [20]): 0
Blackgrass plant response rating (blackgrass; [17]): 0
Plant response rating, Blackgrass (blackgrass; [18]): 0
Plant response rating, Wheat (wheat; [18]): 10
Oat, Wild plant response rating (wild oat; [17]): 10
Plant response rating, Oat, Wild (wild oat; [18]): 20
Rice plant response rating (rice; [21]): 0
Sedge, Umbrella plant response rating [11, 21]: 20
Ducksalad plant response rating (ducksalad; [21]): 0
Barnyardgrass plant response rating (barnyardgrass [12]; [21]): 0

C=CCN(C(C)=O)C(=O)c1ccc(F)c(NC(=O)c2cc(C(C)(C)C)nn2CC)c1 [Compound 442]
Barnyardgrass plant response rating (barnyardgrass [6]; [17]): 10
Barnyardgrass plant response rating (barnyardgrass [6]; [22]): 20
Surinam Grass plant response rating (Surinam grass; [22]): 20
Surinam Grass plant response rating (Surinam grass; [23]): 20
Cocklebur plant response rating (cocklebur; [22]): 100
Cocklebur plant response rating (cocklebur; [23]): 80
Corn plant response rating (corn; [22]): 30
Corn plant response rating (corn; [23]): 30
Crabgrass, Large plant response rating (large crabgrass [7]; [22]): 20
Crabgrass, Large plant response rating (large crabgrass [7]; [23]): 10
Foxtail, Giant plant response rating (giant foxtail [8]; [22]): 20
Foxtail, Giant plant response rating (giant foxtail [8]; [23]): 20
Lambsquarters plant response rating (lambsquarters; [22]): 70
Lambsquarters plant response rating (lambsquarters; [23]): 40
Morningglory plant response rating (morningglory [9]; [22]): 30
Morningglory plant response rating (morningglory [9]; [23]): 20
Pigweed plant response rating (pigweed; [22]): 70
Pigweed plant response rating (pigweed; [23]): 50
Velvetleaf plant response rating (velvetleaf [10]; [22]): 30
Velvetleaf plant response rating (velvetleaf [10]; [23]): 30
Blackgrass plant response rating (blackgrass; [22]): 30
Blackgrass plant response rating (blackgrass; [23]): 30
Wheat plant response rating (wheat; 500 g ai/ha, scale 0 to 100, 0 no effect, 100 complete control, preemergence): 70
Wheat plant response rating (wheat; [22]): 40
Wheat plant response rating (wheat; [23]): 20
Oat, Wild plant response rating (wild oat; [22]): 60
Oat, Wild plant response rating (wild oat; [23]): 50
Rice plant response rating (rice; 125 g ai/ha): 30
Sedge, Umbrella plant response rating ([11]; 125 g ai/ha): 70
Ducksalad plant response rating (ducksalad; 125 g ai/ha): 10
Barnyardgrass plant response rating (barnyardgrass [12]; 125 g ai/ha): 0

CCn1nc(C(C)(C)C)nc1C(=O)Nc1cc(C(=O)N(C)C)ccc1F [Compound 450]
Barnyardgrass plant response rating (barnyardgrass [1]; [24]): 60
Barnyardgrass plant response rating (barnyardgrass [1]; [25]): 80
Barnyardgrass plant response rating (barnyardgrass [1]; [26]): 60
Barnyardgrass plant response rating (barnyardgrass [1]; [27]): 95
Crabgrass, Large plant response rating (large crabgrass [2]; [24]): 15
Crabgrass, Large plant response rating (large crabgrass [2]; [25]): 70
Crabgrass, Large plant response rating (large crabgrass [2]; [26]): 35
Crabgrass, Large plant response rating (large crabgrass [2]; [27]): 70
Foxtail, Giant plant response rating (giant foxtail [3]; [24]): 50
Foxtail, Giant plant response rating (giant foxtail [3]; [25]): 75
Foxtail, Giant plant response rating (giant foxtail [3]; [26]): 70
Foxtail, Giant plant response rating (giant foxtail [3]; [27]): 95
Morningglory plant response rating (morningglory [4]; [24]): 25
Morningglory plant response rating (morningglory [4]; [25]): 30
Morningglory plant response rating (morningglory [4]; [26]): 0
Morningglory plant response rating (morningglory [4]; [27]): 15
Pigweed plant response rating (redroot pigweed; [24]): 20
Pigweed plant response rating (redroot pigweed; [25]): 55
Pigweed plant response rating (redroot pigweed; [26]): 25
Pigweed plant response rating (redroot pigweed; [27]): 95
Velvetleaf plant response rating (velvetleaf [5]; [24]): 30
Velvetleaf plant response rating (velvetleaf [5]; [25]): 60
Velvetleaf plant response rating (velvetleaf [5]; [26]): 0
Velvetleaf plant response rating (velvetleaf [5]; [27]): 35
Rice plant response rating (rice; 125 g ai/ha): 60
Rice plant response rating (rice; 500 g ai/ha): 80
Sedge, Umbrella plant response rating ([11]; 125 g ai/ha): 60
Sedge, Umbrella plant response rating ([11]; 500 g ai/ha): 80
Ducksalad plant response rating (ducksalad; 125 g ai/ha): 40
Ducksalad plant response rating (ducksalad; 500 g ai/ha): 80
Barnyardgrass plant response rating (barnyardgrass [12]; 125 g ai/ha): 50
Barnyardgrass plant response rating (barnyardgrass [12]; 500 g ai/ha): 80
